Entries after “also recorded” stand apart in the source; their conditions may differ.
What was measured:
HeLa cells = test: Cell death assay: etoposide-induced apoptosis in transfected HeLa cells (apoptotic index); assay type: cell-based
Experimental: Cell death assay: The experiment was performed in duplicate and repeated at least three times. A total of […] HeLa cells were seeded in each well of a 4-well Lab-Teck™ chamber slides (Nalge Nunc International), and transfected with pFLAG containing Fortilin or other control cDNAs, using FuGENE6 (Roche). Twenty-four hours after the transfection, the cells were challenged by 5 μg/mL etoposide for 12 hours. Cells were stained for the FLAG-epitope using anti-FLAG antibody (M2, Sigma Co) and anti-mouse IgG conjugated to Rhodamine Red X (Jackson ImmunoResearch Laboratories). The nuclei were stained with DAPI (4,6-Diamidino-2-phenylindole, Sigma Co). Cells were then examined under a Zeiss AXIOSKOP fluorescent microscope (Carl Zeiss Ltd.), using appropriate filter sets. Cells that emitted red fluorescence were evaluated for their nuclear morphology. Condensed or fragmented nuclei were counted as apoptotic. An apoptotic index was then calculated as the number of red cells with apoptotic nuclear morphology divided by the number of total red cells counted and multiplied by 100.
Statistical analysis: For the analysis of statistical significance of apoptotic indices among cells transfected with different plasmids, Dunnett's T tests were performed. In all cases, the confidence intervals were 0.95 with the alpha value of 0.05. For the statistical evaluation of the significant linear trend between the amount of plasmids used for the transfection and apoptotic indices, ANOVA (Analysis of Variance) regression analysis was employed. […] For the analysis of statistical significance of possible correlation between the degree of malignancy and the indices of Fortilin immunoreactivity, Dunnett's multiple range tests were performed.

MCL1 [1] = test: Western blot of intracellular MCL1 concentration in U2OS cells overexpressing Fortilin; assay type: cell-based; conditions: U2OS stable transfectants, compared with control or wild type transfectants
Bax = Bax (Homo sapiens, UniProt Q07812); test: In vitro pull-down assay of Fortilin-HA with Bax; assay type: binding; conditions: in vitro translated proteins, anti-HA pull-down
Bax, sequence (Q07812 whole entry, species assumed): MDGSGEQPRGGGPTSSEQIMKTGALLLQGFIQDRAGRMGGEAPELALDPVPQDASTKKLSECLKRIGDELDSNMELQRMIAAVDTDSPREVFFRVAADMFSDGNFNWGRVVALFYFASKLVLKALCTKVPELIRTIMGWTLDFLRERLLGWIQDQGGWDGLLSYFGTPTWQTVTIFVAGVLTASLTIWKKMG

caspase 3-like activity = test: Assay of caspase 3-like activity in U2OS stable transfectants (Z-DEVD-AFC); assay type: cell-based
Experimental: Assay of caspase 3-like activity. Approximately 2×10^6 U2OS stable transfectants, either expressing Fortilin (U2OS.F) or harboring empty expression vector (U2OS.E), both of which have been characterized above, were challenged either with dimethyl sulfoxide (DMSO) (vehicle) or with etoposide at a final concentration of 10 μg/mL for 48 hours. Caspase 3-like activity was then determined as previously described (Mannick et al., 1999). In brief, cytosolic proteins were extracted in hypotonic cell lysis buffer (25 mM HEPES, pH 7.5, 5 mM MgCl2, 5 mM EDTA, 5 mM dithiothreitol, 0.05% phenylmethylsulfonyl fluoride [PMSF]; all from Sigma) by three cycles of freezing and thawing. The protein concentration of samples was determined by using a BioRad Bradford protein assay kit (BioRad). Ten micrograms of cytosolic extracts were added to caspase assay buffer (312.5 mM HEPES, pH 7.5, 31.25% sucrose, 0.3125% CHAPS) with Z-DEVD-AFC as substrates (CalBiochem, San Diego, Calif.). Release of 7-amido-4-(trifluoromethyl)coumarin (AFC) was quantified, after 2 hours of incubation at 37° C. (or, in the case of time course experiment, every 10 minutes), using a Fluoroskan system (Thermo-Labsystems, Helsinki, Finland) set to an excitation value of 355 nm and emission value of 525 nm. The results were expressed as relative fluorescence unit (R.F.U.) per microgram of protein.

Bcl-xL [2] = molecular target: T1, Bcl-xL (Homo sapiens, UniProt Q07817); test: In vitro pull-down assay of Fortilin-HA with Bcl-xL; assay type: binding; conditions: in vitro translated proteins, anti-HA pull-down
T1 sequence (Q07817 whole entry, species assumed): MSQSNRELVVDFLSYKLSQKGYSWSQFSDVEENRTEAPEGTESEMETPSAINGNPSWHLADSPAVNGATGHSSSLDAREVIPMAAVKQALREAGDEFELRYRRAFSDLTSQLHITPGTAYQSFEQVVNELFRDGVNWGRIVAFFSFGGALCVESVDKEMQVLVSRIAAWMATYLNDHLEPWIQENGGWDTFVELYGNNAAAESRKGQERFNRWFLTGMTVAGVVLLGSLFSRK

Bcl-xL [3] = molecular target: T1, Bcl-xL; test: GST-Fortilin in vitro pull-down of labeled Bcl-xL; assay type: binding; conditions: 35S-labeled Bcl-xL
Experimental: (§1) Studies were initiated to determine whether p53 and Fortilin specifically interact. Either recombinant GST-Fortilin or GST only were incubated at 4° C. for 90 minutes with in vitro translated, [^35S-Met]-labeled p53, MCL1 or Bcl-xL, in Binding Buffer (50 mM HEPES, pH7.5, 70 mM KCl, 0.5 mM ATP, 5 mM MgSO4, 1 mM DTT, 0.001% NP40, 50 μM MG132, 2 μg/mL BSA, Aporotinin, PMSF and protease inhibitor cocktail (Sigma Co., St. Louis, Mo.)). The GST or GST-Fortilin was then pulled down with Glutathione Sepharose 4B beads (Amersham-Pharmacia Biotechnologies). Formed complexes were extensively washed and eluted into SDS loading buffer. The eluted proteins were subjected to SDS-PAGE in duplicate. The first SDS gel was stained with Commassie Blue to confirm the successful immunoprecipitation of GST and GST-Fortilin (IP). […] Thus, there is a specific interaction present between Fortilin and p53, between Fortilin and MCL1.

H1299 cells = test: p53-mediated apoptosis in transfected H1299 cells (apoptotic index); assay type: cell-based; conditions: overexpression, thirty hours after transfection
Experimental: Because wild-type p53 can induce apoptosis, the ability of Fortilin to prevent or inhibit p53-mediated apoptosis was examined. H1299 cells were transfected with indicated combinations of mammalian expression constructs. Thirty hours after the transfection, cells were fixed and stained for beta-galactosidase activities. Cells that were round in shape with significant membrane irregularity were counted as apoptotic (FIG. 5). Apoptotic index was calculated as (Blue cells with apoptotic plasma membrane morphology)/(Total blue cells counted)×100.

MCL1 [4] = molecular target: T2, MCL1 (Homo sapiens, UniProt Q07820); test: In vivo coimmunoprecipitation assay in U2OS stable transfectants of Fortilin and mutants; conditions: anti-HA immunoprecipitation
T2 sequence (Q07820 whole entry): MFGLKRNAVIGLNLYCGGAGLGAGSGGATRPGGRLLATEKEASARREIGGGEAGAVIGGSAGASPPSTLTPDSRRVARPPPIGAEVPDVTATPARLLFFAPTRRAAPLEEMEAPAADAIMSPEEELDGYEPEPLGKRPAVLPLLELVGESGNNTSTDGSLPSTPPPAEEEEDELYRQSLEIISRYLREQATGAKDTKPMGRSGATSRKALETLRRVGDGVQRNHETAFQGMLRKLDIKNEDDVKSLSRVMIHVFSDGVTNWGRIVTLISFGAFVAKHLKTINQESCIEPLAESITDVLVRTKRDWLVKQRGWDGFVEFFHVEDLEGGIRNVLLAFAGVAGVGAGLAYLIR
Excerpt: In vivo coimmunoprecipitation assay. COS-7 cells (2.5×10^6) were cotransfected with pcDNA3-Fortilin-HA or pcDNA3 and with FLAG-MCL1/pFLAG-CMV or pFLAG-CMV vectors using FuGENE6 (Roche Molecular Biochemicals), according to the manufacturer's instructions. […] Formed complexes were precipitated by sheep anti-rat antibodies conjugated to Dynabead™ (Dynal USA); washed with Buffers A and B; eluted into SDS gel loading buffer; and subjected to SDS-PAGE, Western blot transfer and immuodetection with anti-HA (16B12; Covance, Richmond, Calif.) and anti-FLAG (M2; Sigma) antibodies. […] Cells were harvested by scraping, washed with chilled PBS, suspended in Buffer C (Buffer A supplemented with 0.02% NP-40), and lysed by a nitrogen cavitation method (PARR Instrument Co). […] Formed complexes were precipitated by sheep anti-rat antibodies conjugated to Dynabeads™ (Dynal USA); washed with Buffers C; eluted into SDS gel loading buffer; and subjected to SDS-PAGE, Western blot transfer and immuodetection with anti-HA (16B12; Covance, Richmond, Calif.) and anti-MCL1 (Santa Cruz Biotechnology) antibodies.

U2OS cells = test: Bax-mediated apoptosis in transfected U2OS cells (apoptotic index); assay type: cell-based; conditions: U2OS cells cotransfected with Bax-pcDNA3, thirty hours after transfection
Experimental: The amount of LacZ-pFLAG was 1/10 to 1/20 (w/w) of total amounts of DNA added. Thirty hours after the transfection, cells were stained with X-gal. Blue cells represented cells expressing Bax, β-galactosidase and indicated proteins in question. At least 300 blue cells were counted and evaluated for plasma membrane morphology. Rounded cells were counted as apoptotic. Apoptotic index was calculated as the number of blue apoptotic cells divided by the number of total blue cells counted, expressed in percentage. Without the expression of Bax, there was a modest amount of background cell death noted (Lane 6). On the other hand, the presence of Bax caused 2 holds increase in the number of apoptotic cells (Lane 5). […] Taken together, the ability of Fortilin to inhibit Bax mediated apoptosis is mediated by its interaction with MCL1.

MCL1 [5] = molecular target: T2, MCL1; test: GST-Fortilin in vitro pull-down of labeled MCL1; assay type: binding; conditions: 35S-labeled MCL1
Experimental: as §1

Question: Which results are given for “Fortilin: 172 amino acid anti-apoptotic polypeptide (SEQ ID NO:2), overexpressed from expression constructs or used as recombinant/in vitro translated protein”?
Answer: prevention of Etoposide-induced apoptosis (apoptotic index) (HeLa cells; HeLa cells overexpressing FLAG-tagged protein, 5 μg/mL etoposide 12 hours): prevented HeLa cells from undergoing Etoposide-induced apoptosis in a statistically significant fashion; also recorded: as strong an anti-apoptotic effect as that of Bcl-xL and MCL1; apoptotic index versus amount of Fortilin expressed (HeLa cells; HeLa cells, various amounts of pFLAG-Fortilin, etoposide challenge): more prominent anti-apoptotic effects; expression levels of MCL1 (MCL1 Expression Index) (MCL1 [1]): similar; co-immunoprecipitation of Bax with Fortilin in vitro (Bax): not; inhibition of caspase-3-like activity, kinetics (caspase 3-like activity; U2OS cells, 10 μg/mL etoposide, signals every 10 minutes for 2 hours): significantly inhibited the caspase-3-like activity in U2OS cells at all time points; inhibition of caspase-3-like activity upon etoposide challenge (caspase 3-like activity; U2OS cells, etoposide 10 μg/mL 48 hours, vs empty vector): significantly inhibited the caspase-3-like activity in U2OS cells; caspase-3-like activity (caspase 3-like activity; U2OS stably expressing Fortilin (U2OS.F), absence of etoposide challenge (DMSO)): 283±22.6 R.F.U./μg protein; caspase-3-like activity index (caspase 3-like activity; U2OS stably expressing Fortilin (U2OS.F), etoposide 10 μg/mL 48 hours): 713.9±62.6 R.F.U./μg protein; co-immunoprecipitation of Bcl-xL with Fortilin in vitro (Bcl-xL [2]): not; co-immunoprecipitation of Bcl-xL with Fortilin in vitro (Bcl-xL [3]): not Bcl-xL; suppression of p53 induced apoptosis (apoptotic index) (H1299 cells): statistically significant (p<0.001) suppression of p53-induced apoptosis; also recorded: statistically significant (p<0.001) suppression of p53 induced apoptosis; co-immunoprecipitation of MCL1 in vivo (MCL1 [4]): co-immunoprecipitated MCL1; prevention of Bax mediated apoptosis (apoptotic index) (U2OS cells): suppressed Bax induced cell death; co-precipitation of MCL1 with Fortilin in vitro (MCL1 [5]): co-precipitated with Fortilin
